Among the data in PubChem BioAssay (NCI) are TGI and GI50 values, retold here.

“And” between values parts separate entries of the source, which are not always exact repeats. Equal entries are not always repeated.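 Following 48 hours of exposure in 96-well plates, responses at five concentrations were used to interpolate endpoints linearly. GI50 marks 50% less growth. The concentration for full growth arrest is given as TGI.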

Test systems include SW-620 colon; K-562 leukemia; HOP-92 NSCLC; RXF 393 renal; HCC-2998 colon; DLD-1 colon; SNB-19 CNS; DMS 273 small cell lung; MDA-MB-435; MDA-MB-231 breast.
Assay in all cases: NCI tumour cell line growth inhibition, 48 h

On to `c1ccc2c(c1)Cc1c(Cc3csc4ccccc34)ccc3cccc-2c13`, for which the TGI in the experiment with SW-620 colon, with K-562 leukemia, with HOP-92 NSCLC, in the experiment on RXF 393 renal, in the experiment on HCC-2998 colon and with DLD-1 colon was over 100 µM throughout. Also, the TGI with SNB-19 CNS and in the experiment on DMS 273 small cell lung was over 100 µM in each case.

On to `Cc1ccc(N=C2N=C(N3CC(C)OC(C)C3)c3ccccc32)cc1` (configuration not stated), for which the TGI in the experiment with SW-620 colon was over 100 µM; in the experiment on K-562 leukemia, over 100 µM; with HOP-92 NSCLC, 26.5 µM; with RXF 393 renal it was 34.4 µM; in the experiment on HCC-2998 colon, 79.5 µM; in the experiment on DLD-1 colon, over 100 µM. For the same molecule, the TGI with SNB-19 CNS is over 100 µM; with DMS 273 small cell lung it was 77.1 µM.

For `COc1ccc(O)cc1C(O)c1ccccc1` (configuration not stated), the TGI in the experiment on SW-620 colon, with K-562 leukemia, with HOP-92 NSCLC, in the experiment with RXF 393 renal, in the experiment on HCC-2998 colon and with DLD-1 colon was over 100 µM in each case. Also, the TGI with SNB-19 CNS and in the experiment with DMS 273 small cell lung was over 100 µM each time.

Take `CC(=O)c1ccccc1NC(=O)C(=O)C(C(=O)c1ccccc1-c1ccccc1)C1OC(=O)c2ccccc21` (configuration not stated): the TGI is 86.5 µM in the experiment on SW-620 colon; over 100 µM in the experiment on K-562 leukemia; 25 µM in the experiment with RXF 393 renal; 30.9 µM in the experiment with HCC-2998 colon; 48 µM in the experiment with DLD-1 colon; 58.9 µM in the experiment on SNB-19 CNS. The TGI with DMS 273 small cell lung is over 100 µM.

In the case of `CCOC(=N)CC(=O)Nc1ccccc1`, the TGI in the experiment on SW-620 colon was over 67.6 µM; with K-562 leukemia it was over 31.6 µM; with RXF 393 renal, over 46.4 µM; in the experiment on HCC-2998 colon, over 31.6 µM; in the experiment on DLD-1 colon it was over 46.4 µM; in the experiment with SNB-19 CNS it was over 100 µM. In the experiment on DMS 273 small cell lung, this molecule yielded a TGI of over 46.4 µM.

In the case of `O=C1NC2(CCCCC2)C(=O)N1CCN(CCCl)CCCl`, the GI50 in the experiment on SW-620 colon is over 25 µM; in the experiment with K-562 leukemia, over 25 µM; in the experiment with HOP-92 NSCLC, > 25 µM and 22.9 µM; in the experiment on RXF 393 renal it was > 25 µM and 99.2 µM; in the experiment with HCC-2998 colon, over 25 µM; with SNB-19 CNS, over 25 µM. Also, the TGI was > 25 µM and 150 µM with SW-620 colon; over 25 µM with MDA-MB-435; over 250 µM in the experiment with K-562 leukemia; > 25 µM and 48.3 µM in the experiment on HOP-92 NSCLC; > 25 µM and 202 µM in the experiment with RXF 393 renal; over 250 µM with HCC-2998 colon. Besides, the TGI in the experiment with DLD-1 colon is over 250 µM; in the experiment on MDA-MB-231 breast, over 25 µM; with SNB-19 CNS, over 250 µM; in the experiment on DMS 273 small cell lung it was over 223 µM.

Turning to `CCCCCCCCCCCCCCCC(=O)OCCOCCOCCOCCOCCOC(=O)CCCCCCCCCCCCCCC`, the TGI in the experiment with SW-620 colon, in the experiment on K-562 leukemia, with HOP-92 NSCLC, in the experiment on RXF 393 renal, in the experiment with HCC-2998 colon and with DLD-1 colon was over 100 µM in each case. Also, the TGI with SNB-19 CNS and in the experiment on DMS 273 small cell lung was over 100 µM each time.

As to `CCc1cc2c(O)c(c1)Cc1cc(CC)cc(c1O)Cc1cc(CC)cc(c1O)Cc1cc(CC)cc(c1O)Cc1cc(CC)cc(c1O)Cc1cc(CC)cc(c1O)Cc1cc(CC)cc(c1O)C2`, the TGI is over 100 µM with SW-620 colon; over 100 µM in the experiment on HOP-92 NSCLC; 43.3 µM in the experiment on RXF 393 renal; over 100 µM in the experiment on HCC-2998 colon; over 100 µM with DLD-1 colon; 71.7 µM with SNB-19 CNS. The TGI in the experiment on DMS 273 small cell lung was over 100 µM.

With `O=C1C=C2CCCC2C(C(=O)O)(C(=O)O)C1` (configuration not stated), the TGI in the experiment with SW-620 colon, with K-562 leukemia, in the experiment with HOP-92 NSCLC, in the experiment on RXF 393 renal, in the experiment on HCC-2998 colon and in the experiment with DLD-1 colon was over 100 µM throughout. Further, the TGI in the experiment with SNB-19 CNS and in the experiment on DMS 273 small cell lung was over 100 µM in each case.

In the case of `O=C(CC1C(=O)Nc2ccccc2S1(=O)=O)Nc1ccc(Cl)cc1` (configuration not stated), the TGI in the experiment on SW-620 colon was over 100 µM; in the experiment on K-562 leukemia, 48.9 µM; with HOP-92 NSCLC, 44.5 µM; in the experiment on RXF 393 renal, 38.5 µM; in the experiment on HCC-2998 colon it was 39.6 µM; in the experiment on DLD-1 colon it was over 100 µM. In addition, the values for the TGI with SNB-19 CNS and in the experiment with DMS 273 small cell lung were 57.1 µM and 45.6 µM, respectively.

`N#C/C(=C1\OC(=N)C(c2ccccc2)C1=O)c1ccccc1` (configuration not stated): the TGI is 59.1 µM with SW-620 colon; 74.6 µM with K-562 leukemia; over 71.3 µM in the experiment on HOP-92 NSCLC; 31.8 µM in the experiment on RXF 393 renal; over 100 µM with HCC-2998 colon; 39.1 µM in the experiment on DLD-1 colon. The TGI in the experiment with SNB-19 CNS and in the experiment on DMS 273 small cell lung was over 100 µM throughout.

As to `Cc1ccc(/C=C/C(=O)c2sc(-n3nc(-c4ccccc4)cc3-c3ccccc3)nc2C)cc1`, the TGI in the experiment with SW-620 colon, in the experiment on K-562 leukemia, with HOP-92 NSCLC, in the experiment on RXF 393 renal, with HCC-2998 colon and with DLD-1 colon was over 100 µM each time. The molecule further registered a TGI in the experiment with DMS 273 small cell lung of over 100 µM.

With `COc1ccc(/C=C/C(=O)c2c(-c3ccccc3)nn(C)c(=O)c2N2CCOCC2)cc1`, the TGI with SW-620 colon, in the experiment with K-562 leukemia, in the experiment with HOP-92 NSCLC, in the experiment with RXF 393 renal, with DLD-1 colon and in the experiment with SNB-19 CNS was over 100 µM each time. The TGI in the experiment with DMS 273 small cell lung was over 100 µM.

`COc1cc2c(c(OC)c1OC)-c1ccc(SC)c(=O)cc1[C@@H](NC(=O)C(F)(F)F)CC2`: the TGI in the experiment with SW-620 colon is over 100 µM; with K-562 leukemia it was over 85.2 µM; in the experiment with HOP-92 NSCLC it was 0.105 µM; in the experiment with RXF 393 renal, 1.28 µM; with HCC-2998 colon, over 71.3 µM; in the experiment on DLD-1 colon, over 100 µM. For the same molecule, the TGI in the experiment on MDA-MB-231 breast, with SNB-19 CNS and with DMS 273 small cell lung was over 100 µM each time.

On to `C/C=C/C(=O)[O-].C/C=C/C(=O)[O-].N.N.N.N.[Co+3].[O-][Cl+3]([O-])([O-])[O-]`, for which the GI50 in the experiment with SW-620 colon, in the experiment with K-562 leukemia, in the experiment with HOP-92 NSCLC, in the experiment with HCC-2998 colon, in the experiment on DLD-1 colon and in the experiment on SNB-19 CNS was over 100 µM in each case. The GI50 with DMS 273 small cell lung was over 100 µM. Moreover, the TGI in the experiment on SW-620 colon, in the experiment with K-562 leukemia, in the experiment with HOP-92 NSCLC, in the experiment on HCC-2998 colon, with DLD-1 colon and with SNB-19 CNS was over 100 µM throughout. The TGI in the experiment with DMS 273 small cell lung was over 100 µM.

Consider `NS(=O)(=O)c1ccc(NC(=O)C2C(=O)C(=O)N(c3ccc(S(N)(=O)=O)cc3)C2=O)cc1` (configuration not stated), for which the TGI in the experiment with SW-620 colon, in the experiment on K-562 leukemia, in the experiment on HOP-92 NSCLC, in the experiment with RXF 393 renal, in the experiment on HCC-2998 colon and in the experiment on DLD-1 colon was over 100 µM in each case. For the same molecule, the TGI with SNB-19 CNS and in the experiment with DMS 273 small cell lung was over 100 µM in each case.

As for `CC1(C)c2ccccc2N2O[C@@H]3C(=O)N(c4ccccc4)C(=O)[C@@H]3C21c1ccccc1` (some centres not stated), the TGI in the experiment on SW-620 colon, in the experiment with K-562 leukemia, in the experiment on RXF 393 renal, with HCC-2998 colon, in the experiment with DLD-1 colon and with SNB-19 CNS was over 100 µM throughout. The TGI in the experiment on DMS 273 small cell lung was over 100 µM.

For the molecule `CCCCNC(=S)OCCC(C)CCCC(C)C` (configuration not stated), the TGI with SW-620 colon, with K-562 leukemia, with RXF 393 renal, in the experiment with HCC-2998 colon, in the experiment with DLD-1 colon and in the experiment with SNB-19 CNS was over 100 µM throughout. In the experiment on DMS 273 small cell lung, this molecule gave a TGI of over 100 µM.

Consider `O=C(CCC(=O)Nc1cccc(C(F)(F)F)c1)CC(=O)c1ccc2ccccc2c1`, for which the TGI with SW-620 colon, in the experiment on K-562 leukemia, in the experiment on HOP-92 NSCLC, in the experiment on HCC-2998 colon, in the experiment with DLD-1 colon and with SNB-19 CNS was over 100 µM throughout. In the experiment with DMS 273 small cell lung, this molecule showed a TGI of over 100 µM.

With `CC1C=CC(C(N)C(=O)O)O1` (configuration not stated), the TGI with SW-620 colon, with K-562 leukemia, in the experiment on HOP-92 NSCLC, with RXF 393 renal, in the experiment on HCC-2998 colon and in the experiment on DLD-1 colon was over 100 µM throughout. Also, the TGI in the experiment on SNB-19 CNS and in the experiment with DMS 273 small cell lung was over 100 µM each time.
